Values quoted from earlier work in patent publication US20230330191A1, “METHODS OF STIMULATING BONE GROWTH WITH ABALOPARATIDE AND DENOSUMAB” (Radius Health, Inc., priority 2020, published 2023).
Values belong to the molecule of their own block, whether it stands above or below them.

Legend:
[1] = tested on: ovariectomy-induced osteopenia animal models
RANKL:OPG ratio = conditions: Makino, CTI 2018
[2] = in vivo
[3] = in vivo; remark: listed apart in the source

- potential to induce hypercalcemia compared to teriparatide [2]: lower potential to induce hypercalcemia
Molecule: [Glu22,25, Leu23,28,31, Aib29, Lys26,30]hPTHrP(1-34)NH2 [abaloparatide]
- bone loss (bone anabolic activity) [1]: complete reversal of bone loss
- RANKL and OPG expression, RANKL:OPG ratio (RANKL:OPG ratio): upregulates RANKL and reduces OPG, increasing the RANKL:OPG ratio
- increases in BMD compared with cathepsin K inhibitor drugs or PTH-like drugs such as teriparatide [2]: substantially faster and greater
- incidence of the most common adverse reactions (hypercalciuria, dizziness, nausea, headache, palpitations, fatigue, upper abdominal pain, vertigo) [3]: > 2%

Molecule: CC[C@H](C)[C@H](NC(=O)[C@H](CCC(=O)O)NC(=O)[C@H](CO)NC(=O)[C@@H](NC(=O)[C@@H](N)CO)C(C)C)C(=O)N[C@@H](CCC(N)=O)C(=O)N[C@@H](CC(C)C)C(=O)N[C@@H](CCSC)C(=O)N[C@@H](Cc1cnc[nH]1)C(=O)N[C@@H](CC(N)=O)C(=O)N[C@@H](CC(C)C)C(=O)NCC(=O)N[C@@H](CCCCN)C(=O)N[C@@H](Cc1cnc[nH]1)C(=O)N[C@@H](CC(C)C)C(=O)N[C@@H](CC(N)=O)C(=O)N[C@@H](CO)C(=O)N[C@@H](CCSC)C(=O)N[C@@H](CCC(=O)O)C(=O)N[C@@H](CCCN=C(N)N)C(=O)N[C@H](C(=O)N[C@@H](CCC(=O)O)C(=O)N[C@@H](Cc1c[nH]c2ccccc12)C(=O)N[C@@H](CC(C)C)C(=O)N[C@@H](CCCN=C(N)N)C(=O)N[C@@H](CCCCN)C(=O)N[C@@H](CCCCN)C(=O)N[C@@H](CC(C)C)C(=O)N[C@@H](CCC(N)=O)C(=O)N[C@@H](CC(=O)O)C(=O)N[C@H](C(=O)N[C@@H](Cc1cnc[nH]1)C(=O)N[C@@H](CC(N)=O)C(=O)N[C@@H](Cc1ccccc1)C(=O)O)C(C)C)C(C)C [teriparatide]
- total hip BMD (women; 2 years of teriparatide after 2 years of denosumab, versus mean BMD at end of denosumab treatment (Leder, Lancet 2015)): remains below the mean BMD
- BMD in the hip and femoral neck (women; switching from denosumab to teriparatide): substantial BMD loss

Molecule: Denosumab: fully human monoclonal IgG antibody with affinity and specificity for human receptor activator of nuclear factor kappa-B ligand (RANKL)
- effects of denosumab withdrawal on bone (women; after withdrawal (Cummings JBMR 2017)): dramatic increased bone remodeling, rapid prominent bone loss, and multiple vertebral fractures
